Measured values: patent US11420961B2, “Heterocyclic compounds” (Hoffmann-La Roche Inc., priority 2017, dated 2022)

molecular target: T1, MAGL (recombinant wild-type) (Homo sapiens, UniProt Q99685); assay: 4-NPA assay: MAGL inhibitory activity by hydrolysis of 4-nitrophenylacetate, absorbance at 405 nm; assay type: biochemical; conditions: 4-NPA assay (values without footnote [a])
T1 sequence (Q99685 1-303): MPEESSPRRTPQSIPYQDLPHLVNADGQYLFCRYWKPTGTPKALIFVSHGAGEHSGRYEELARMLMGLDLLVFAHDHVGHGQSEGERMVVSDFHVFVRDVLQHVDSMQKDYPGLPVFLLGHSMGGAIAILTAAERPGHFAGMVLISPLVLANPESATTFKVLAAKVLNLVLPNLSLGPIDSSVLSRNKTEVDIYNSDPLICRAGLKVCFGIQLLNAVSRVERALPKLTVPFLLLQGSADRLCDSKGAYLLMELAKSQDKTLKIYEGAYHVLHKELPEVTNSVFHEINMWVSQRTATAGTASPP
Description: Compounds were profiled for MAGL inhibitory activity by measuring the enzymatic activity of MAGL by following the hydrolysis of 4-nitorphenylacetate resulting in 4-nitrophenol, which absorbs at 405-412 nm (G. G. Muccioli, G. Labar, D M. Lambert, Chem. Bio. Chem. 2008, 9, 2704-2710). This assay is hereinafter abbreviated “4-NPA assay”.
The 4-NPA assay was carried out in 384 well assay plates (black with clear bottom, non-binding surface treated, Corning Ref. 3655) in a total volume of 40 μL. Compound dilutions were made in 100% DMSO (VWR Chemicals 23500.297) in a polypropylene plate in 3-fold dilution steps to give a final concentration range in the assay from 25 μM to 1.7 nM. 1 μL compound dilutions (100% DMSO) were added to 19 μL MAGL (recombinant wild-type) in assay buffer (50 mM TRIS (GIBCO, 15567-027), 1 mM EDTA (Fluka, 03690-100 ml)). The plate was shaked for 1 min at 2000 rpm (Variomag Teleshake) and then incubated for 15 min at RT. To start the reaction, 20 μL 4-Nitrophenlyacetate (Sigma N-8130) in assay buffer with 6% EtOH was added. The final concentrations in the assay were 1 nM MAGL and 300 μM 4-Nitrophenylacetate. After shaking (1 min, 2000 rpm) and 5 min incubation at RT, the absorbance at 405 nm was measured for a first time (Molecular Devices, SpectraMax Paradigm). A second measurement was then done after incubation for 80 min at RT. From the two measurements, the slope was calculated by substracting the first from the second measurement.

| IC50 [nM] | SMILES |
| --- | --- |
| 158 | O=C1COc2ccc(C(=O)N3CCC(c4n[nH]c5ccccc45)CC3)cc2N1 [Example 36, 6-[4-(1H-indazol-3-yl)piperidine-1-carbonyl]-4H-1,4-benzoxazin-3-one] |
| 350 | O=C1COc2ccc(C(=O)N3CCC(c4nn(CCO)c5cc(F)ccc45)CC3)cc2N1 [Example 37, 6-[4-[6-fluoro-1-(2-hydroxyethyl)indazol-3-yl]piperidine-1-carbonyl]-4H-1,4-benzoxazin-3-one] |
| 86 | CC(C)n1nc(C2CCN(C(=O)c3ccc4c(c3)NC(=O)CO4)CC2)c2ccc(F)cc21 [Example 38, 6-[4-(6-fluoro-1-propan-2-ylindazol-3-yl)piperidine-1-carbonyl]-4H-1,4-benzoxazin-3-one] |
| 84 | Cn1nc(C2CCN(C(=O)c3ccc4c(c3)NC(=O)CO4)CC2)c2ccc(Cl)cc21 [Example 39, 6-[4-(6-chloro-1-methylindazol-3-yl)piperidine-1-carbonyl]-4H-1,4-benzoxazin-3-one] |
| 550 | O=C1COc2ccc(C(=O)N3CCC(c4cc5ccccc5[nH]4)CC3)cc2N1 [Example 40, 6-[4-(1H-indol-2-yl)piperidine-1-carbonyl]-4H-1,4-benzoxazin-3-one] |
| 440 | COc1ccc2[nH]c(C)c(C3CCN(C(=O)c4ccc5c(c4)NC(=O)CO5)CC3)c2c1 [Example 41, 6-[4-(5-methoxy-2-methyl-1H-indol-3-yl)piperidine-1-carbonyl]-4H-1,4-benzoxazin-3-one] |
| 97 | O=C1COc2ccc(C(=O)N3CCC(c4csc5ccccc45)CC3)cc2N1 [Example 42, 6-[4-(1-benzothiophen-3-yl)piperidine-1-carbonyl]-4H-1,4-benzoxazin-3-one] |
| 180 | O=C1COc2ccc(C(=O)N3CCC(c4n[nH]c5cc(F)ccc45)CC3)cc2N1 [Example 43, 6-[4-(6-fluoro-1H-indazol-3-yl)piperidine-1-carbonyl]-4H-1,4-benzoxazin-3-one] |
| 390 | O=C1COc2ccc(C(=O)N3CCC(c4cc(-c5ccc(Cl)cc5)[nH]n4)CC3)cc2N1 [Example 44, 6-[4-[5-(4-chlorophenyl)-1H-pyrazol-3-yl]piperidine-1-carbonyl]-4H-1,4-benzoxazin-3-one] |
| 220 | O=C1COc2ccc(C(=O)N3CCC(c4c[nH]c5ncccc45)CC3)cc2N1 [Example 45, 6-[4-(1H-pyrrolo[2,3-b]pyridin-3-yl)piperidine-1-carbonyl]-4H-1,4-benzoxazin-3-one] |
| 1110 | O=C1COc2ccc(C(=O)N3CCC(c4cc5ccc(Cl)cc5[nH]4)CC3)cc2N1 [Example 46, 6-[4-(6-chloro-1H-indol-2-yl)piperidine-1-carbonyl]-4H-1,4-benzoxazin-3-one] |
| 59 | Cc1[nH]c2ccc(Cl)cc2c1C1CCN(C(=O)c2ccc3c(c2)NC(=O)CO3)CC1 [Example 47, 6-[4-(5-chloro-2-methyl-1H-indol-3-yl)piperidine-1-carbonyl]-4H-1,4-benzoxazin-3-one] |
| 549 | O=C1COc2ccc(C(=O)N3CCC(c4nnc(-c5ccccc5)o4)CC3)cc2N1 [Example 48, 6-[4-(5-phenyl-1,3,4-oxadiazol-2-yl)piperidine-1-carbonyl]-4H-1,4-benzoxazin-3-one] |
| 5540 | O=C1COc2ccc(C(=O)N3CCC(n4cnc5ccccc54)CC3)cc2N1 [Example 49, 6-[4-(benzimidazol-1-yl)piperidine-1-carbonyl]-4H-1,4-benzoxazin-3-one] |
| 150 | O=C1COc2ccc(C(=O)N3CCC(c4noc5cc(C(F)(F)F)ccc45)CC3)cc2N1 [Example 50, 6-[4-[6-(trifluoromethyl)-1,2-benzoxazol-3-yl]piperidine-1-carbonyl]-4H-1,4-benzoxazin-3-one] |
| 370 | O=C1COc2ccc(C(=O)N3CCC(c4noc5cc(F)ccc45)CC3)cc2N1 [Example 51, 6-[4-(6-fluoro-1,2-benzoxazol-3-yl)piperidine-1-carbonyl]-4H-1,4-benzoxazin-3-one] |
| 140 | O=C1COc2ccc(C(=O)N3CCC(c4noc5ccc(F)cc45)CC3)cc2N1 [Example 52, 6-[4-(5-fluoro-1,2-benzoxazol-3-yl)piperidine-1-carbonyl]-4H-1,4-benzoxazin-3-one] |
| 6.3 | O=C1COc2ccc(C(=O)N3CCC(C4(c5ccc(Cl)cc5)CCCO4)CC3)cc2N1 (centres unmarked) [Example 53, 6-[4-[2-(4-chlorophenyl)oxolan-2-yl]piperidine-1-carbonyl]-4H-1,4-benzoxazin-3-one] |
| 7.3 | O=C1COc2ccc(C(=O)N3CCC(C4(c5ccc(Br)cc5)OCCO4)CC3)cc2N1 [Example 54, 6-[4-[2-(4-bromophenyl)-1,3-dioxolan-2-yl]piperidine-1-carbonyl]-4H-1,4-benzoxazin-3-one] |
| 68 | O=C1COc2ccc(C(=O)N3CCC(C4(c5ccccc5)CC4)CC3)cc2N1 [Example 55, 6-[4-(1-phenylcyclopropyl)piperidine-1-carbonyl]-4H-1,4-benzoxazin-3-one] |
| 1400 | O=C1COc2ccc(C(=O)N3CCC(c4cccc(Cl)c4)C3)cc2N1 (centres unmarked) [Example 56, 6-[3-(3-chlorophenyl)pyrrolidine-1-carbonyl]-4H-1,4-benzoxazin-3-one] |
| 3020 | O=C1COc2ccc(C(=O)N3CCC(c4nccc(C(F)(F)F)n4)C3)cc2N1 (centres unmarked) [Example 57, 6-[3-[4-(trifluoromethyl)pyrimidin-2-yl]pyrrolidine-1-carbonyl]-4H-1,4-benzoxazin-3-one] |
| 0.8 | COc1ccc(C(c2ccccc2)C2CCN(C(=O)c3ccc4c(c3)NC(=O)CO4)CC2)cc1 (centres unmarked) [Example 58, 6-[4-[(4-methoxyphenyl)-phenyl-methyl]piperidine-1-carbonyl]-4H-1,4-benzoxazin-3-one] |
| 0.5 | Cc1cccc(C(c2ccccc2)C2CCN(C(=O)c3ccc4c(c3)NC(=O)CO4)CC2)c1 (centres unmarked) [Example 59, 6-[4-[m-tolyl(phenyl)methyl]piperidine-1-carbonyl]-4H-1,4-benzoxazin-3-one] |
| 0.62 | O=C1COc2ccc(C(=O)N3CCC(C(c4ccccc4)n4ccc5ccccc54)CC3)cc2N1 (centres unmarked) [Example 60, 6-[4-[indol-1-yl(phenyl)methyl]piperidine-1-carbonyl]-4H-1,4-benzoxazin-3-one] |
| 0.24 | O=C1COc2ccc(C(=O)N3CCC([C@H](c4ccccc4)c4cccc(OCCOCCF)c4)CC3)cc2N1 [Example 66, 6-[4-[(R)-[3-[2-(2-fluoroethoxy)ethoxy]phenyl]-phenyl-methyl]piperidine-1-carbonyl]-4H-1,4-benzoxazin-3-one] |
| 0.65 | O=C1COc2ccc(C(=O)N3CCC([C@@H](c4ccccc4)c4cccc(OCCOCCF)c4)CC3)cc2N1 [Example 67, 6-[4-[(S)-[3-[2-(2-fluoroethoxy)ethoxy]phenyl]-phenyl-methyl]piperidine-1-carbonyl]-4H-1,4-benzoxazin-3-one] |
| 0.55 | O=C1COc2ccc(C(=O)N3CCC(C(c4ccccc4)c4cccc(OCCF)c4)CC3)cc2N1 (centres unmarked) [Example 72, 6-[4-[[3-(2-fluoroethoxy)phenyl]-phenyl-methyl]piperidine-1-carbonyl]-4H-1,4-benzoxazin-3-one] |
| 0.73 | O=C1COc2ccc(C(=O)N3CCC(C(c4ccccc4)c4ccc(OCCF)cc4)CC3)cc2N1 (centres unmarked) [Example 73, 6-[4-[[4-(2-fluoroethoxy)phenyl]-penyl-methyl]piperidine-1-carbonyl]-4H-1,4-benzoxazin-3-one] |
